In patent EP0055996A1, “Antithrombotic treatment” (T AND R CHEMICALS, INC., priority 1980, dated 1982):

Assays:
[1] = system: coagulation factors; assay: In vitro prothrombin time (PT) coagulation assay; design: species or system human; details: for PT(sec) REPLICATIONS I: replication I
Experimental: (§1) In vitro assays of the product of each of Examples A to C and certain of the Examples included in European Application No 81302950.1 were conducted for coagulation factors as described in "Human Blood Coagulation., Haemostasis and Thrombosis", edited by Rosemary Biggs, published by Blackwell Scientific Publications, Oxford, England (2nd Edition), pages 670-705, 1976.

[2] = system: coagulation factors; assay: In vitro partial thromboplastin time (PTT) coagulation assay; design: species or system human; details: for PTT(sec) REPLICATIONS I: replication I
Experimental: as §1

[3] = Used at 0.01 Molar Concentration Based on NaHSO3
[4] = Used at 0.01 Molar Concentration Based on NaHSO3, replication II
[5] = Used at 0.01 Molar Concentration Based on NaHSO3, replication III

| SMILES | PT(sec) REPLICATIONS I [1, 3] | PT(sec) REPLICATIONS II [1, 4] | PT(sec) REPLICATIONS III [1, 5] | PTT(sec) REPLICATIONS I [2, 3] | PTT(sec) REPLICATIONS II [2, 4] | PTT(sec) REPLICATIONS III [2, 5] | ability to affect PT values ([1]; no conditions given) | ability to affect PTT values ([2]; no conditions given) |
| --- | --- | --- | --- | --- | --- | --- | --- | --- |
| O=S([O-])O.[Na+] [NaHSO3 in water, sodium bisulphite] | 20.2 s | 20.3 s | 20.0 s | 64.4 s | 63.2 s | 63.9 s | – | – |
| O=S(=O)(O)CO [Sodium formaldehyde bisulphite] | 20.5 s | – | – | 63.5 s | – | – | – | – |
| O=S=O [aqueous solutions of sulphur dioxide, sulphur dioxide] | – | – | – | – | – | – | display a capacity to lengthen PT and PTT values at least to the extent indicated above | display a capacity to lengthen PT and PTT values at least to the extent indicated above |
